Experimental data from PMC4728661, “Cancer Prevention and Health Benefices of Traditionally Consumed Borago officinalis Plants” (Nutrients, 2016).

What was measured:
D. melanogaster = test: Genotoxicity: Somatic Mutation and Recombination Test (SMART), wing spot test, simple treatments; type: in vivo, Drosophila melanogaster; details: for Genotoxicity in the Drosophila wing spot test (in words): simple treatments, all concentrations; for Diagnosis, Small Single Spots 1–2 Cells m = 2 / Diagnosis, Total Spots m = 2 / Mutation rate, Large Single Spots >2 Cells m = 5 / Mutation rate, Small Single Spots 1–2 Cells m = 2 / Mutation rate, Total Spots m = 2 / Mutation rate, Twin Spots m = 5 / Diagnosis, Twin Spots m = 5 / Diagnosis, Large Single Spots >2 Cells m = 5: simple; as to Diagnosis, Large Single Spots >2 Cells m = 5: key: + (positive); − (negative); as to Diagnosis, Small Single Spots 1–2 Cells m = 2: key: + (positive); − (negative); as to Diagnosis, Total Spots m = 2: key: + (positive); − (negative); as to Diagnosis, Twin Spots m = 5: key: + (positive); − (negative)
Procedure: The D. melanogaster system was selected for the determination of the safety of B. officinalis consumption as a well-recognized method to analyze vegetable complex mixtures using SMART [31, 32]. This test was used in order to evaluate the genotoxic and antigenotoxic activity of B. officinalis leaves and petioles as well as their selected bioactive compounds [33]. This activity was measured by direct visualization of the occurrence of recessive mutations in the wing hairs of two different D. melanogaster strains. Flies from experiments carried these visible wing genetic markers: the flare (flr) strain flr^3/ln (3LR) TM3, Bd^s and the multiple wing-hair (mwh) strain mwh/mwh. The marker flare (flr^3, 3_38.3) produces individual malformed hairs and the marker multiple wing hairs (mwh, 3_0.3) produces multiple hairs per cell. Larvae used in treatments come from two types of crosses: the standard cross with flr^3/TM3, Bd^S females mated to mwh/mwh males and the reciprocal cross.
Optimal fertile flies were anesthetized under CO2 narcotisation for cross selection and then placed in new vials for fertilization. After that, hybrid eggs from crossing were collected over an 8 h period and emerged larvae (72 ± 4 h later) were cleaned up for a few seconds in sterile distilled water to remove feeding medium rests. For genotoxicity analysis (simple treatments), groups of 100 larvae were transferred into vials containing 0.85 g of Drosophila Instant Medium (Formula 4–24, Carolina Biological Supply, Burlington, NC, USA) wetted with 4 mL of a mixture of distilled water and increasing concentrations of samples: B. officinalis BF and WF (1.25, 2.5, and 5 mg·mL^−1), RO (0.35, 0.7, 1.39 and 2.78 mM), SY (0.16, 0.32, 0.63 and 1.26 mM), SI (0.15, 0.29, 0.58 and 1.16 mM) and the mixture of these three bioactive compounds at each concentration assayed individually. Bioactive compound concentrations were chosen on the basis of their known content in B. officinalis species. […] Larvae were fed on these media until pupation (about 48 h). After emergence, resulting adult flies were sacrificed under CO2 narcotisation and stored in a 70% ethanol solution in sterile water. Emerged adults were counted for toxicity evaluation and transheterozygous wings (mwh flr^+/mwh^+ flr^3) were mounted on microscope slides and wing hair mutations (spots) scored, using a photonic microscope (Nikon) at 400× magnification for genotoxicity and antigenotoxicity evaluation.
For the evaluation of genotoxic effects, the frequencies of spots per fly of each treated series were compared to the concurrent negative control for each class of mutational clone as well as between simple and combined treatments for the same concentration comparisons. […] A multiple-decision procedure was used to categorize results as positive, inconclusive or negative. Inconclusive and positive results were evaluated by the non-parametric U test of Mann, Whitney and Wilcoxon. The inhibition percentage (IP) of genotoxicity was calculated from the total frequencies of spots per wing, following this formula [42]: IP = (genotoxin alone − sample + genotoxin) × 100/(genotoxin alone)(2)

[1] = Cytotoxicity: HL-60 growth/viability, Trypan Blue dye exclusion; type: cell-based, human; details: human, HL-60 cells (acute promyelocytic leukemia); HL-60, 72 h treatment, Trypan Blue; read-out: IC50 (cytotoxic effect)
Procedure: The human acute promyelocytic leukemia cell line HL-60 was routinely grown in suspension in RPMI medium (Invitrogen, Madrid, Spain) containing glutamine ([…], Sigma-Aldrich, St. Louis, MO, USA), antibiotics (100IU penicillin mL^−1 and 100 μg streptomycin mL^−1, Sigma-Aldrich) and supplemented with 10% heat-inactivated foetal bovine serum (Linus, Cultek, Madrid, Spain) and placed in an incubator (Shel Lab, Cornelious, OR, USA) with a 5% CO2 humidified atmosphere at 37 °C [36]. HL-60 cells were subcultured every 2–3 days to maintain logarithmic growth and they were allowed to grow for 48 h before use. Cultures were plated at a density of 12.5 × 10^4 cells mL^−1 in 40 mL culture flasks (25 cm^2). Cytotoxic activity was measured as growing inhibition or decreased viability on HL-60 cells following a previous protocol modified by us. […] Cells were counted after 72 h treatment. Tested concentrations were calculated according to those used for in vivo assays to equal the range of tested doses. Untreated cultures were used as negative control. Cell viability was determined by the Trypan Blue dye exclusion test. Cells were stained with an equal volume of Trypan Blue commercial solution (Sigma-Aldrich) and counted using a hemocytometer at room temperature under a light inverted microscope (AE30/31, Motic, Barcelona, Spain). Cytotoxic effect evaluation was determined after each culture incubation period, establishing a growth curve and determining IC50 values by regression analysis of the curves. Viability estimated regressions of leukemia cells are presented as a survival percentage with respect to controls at 72 h growth and plotted as mean viability ± standard error of at least three independent replicas for each treatment and concentration.

rats = test system: rats; set-up: method as in PMID 16026713; details: doses of 2 and 8 mg·kg^−1, brain tissue and peripheral blood; cited from earlier work
V79 cell line = test system: V79 cell line; set-up: method as in doi:10.3389/conf.fgene.2015.01.0004; details: dose dependent, concentrations below 2 mM reduce DNA damage; cited from earlier work
HL-60 cells = test system: HL-60 cells; set-up: method as in PMID 19067382; details: SY in extracts of Elaphomyces granulates, concentrations up to ~31 µg·mL^−1; cited from earlier work
HL-60 cell = details: 0.1 mM in cell medium; cited from earlier work

## O=C(/C=C/c1ccc(O)c(O)c1)O[C@H](Cc1ccc(O)c(O)c1)C(=O)O [RO, rosmarinic acid]
D. melanogaster
  Genotoxicity in the Drosophila wing spot test (in words): not mutagenic
D. melanogaster; 0.35 mM RO
  Diagnosis, Small Single Spots 1–2 Cells m = 2: −
  Diagnosis, Total Spots m = 2: −
  Mutation rate, Large Single Spots >2 Cells m = 5: 0 spots/wing
  Mutation rate, Small Single Spots 1–2 Cells m = 2: 0.38 (6) spots/wing
  Mutation rate, Total Spots m = 2: 0.38 (6) spots/wing
  Mutation rate, Twin Spots m = 5: 0 spots/wing
D. melanogaster; 0.7 mM RO
  Diagnosis, Small Single Spots 1–2 Cells m = 2: −
  Diagnosis, Total Spots m = 2: −
  Diagnosis, Twin Spots m = 5: −
  Mutation rate, Large Single Spots >2 Cells m = 5: 0 spots/wing
  Mutation rate, Small Single Spots 1–2 Cells m = 2: 0.21 (7) spots/wing
  Mutation rate, Total Spots m = 2: 0.26 (9) spots/wing
  Mutation rate, Twin Spots m = 5: 0.06 (2) spots/wing
D. melanogaster; 1.39 mM RO
  Diagnosis, Small Single Spots 1–2 Cells m = 2: −
  Diagnosis, Total Spots m = 2: −
  Diagnosis, Twin Spots m = 5: −
  Mutation rate, Large Single Spots >2 Cells m = 5: 0 spots/wing
  Mutation rate, Small Single Spots 1–2 Cells m = 2: 0.18 (4) spots/wing
  Mutation rate, Total Spots m = 2: 0.23 (5) spots/wing
  Mutation rate, Twin Spots m = 5: 0.05 (1) spots/wing
D. melanogaster; 2.78 mM RO
  Diagnosis, Large Single Spots >2 Cells m = 5: −
  Diagnosis, Small Single Spots 1–2 Cells m = 2: −
  Diagnosis, Total Spots m = 2: −
  Mutation rate, Large Single Spots >2 Cells m = 5: 0.05 (2) spots/wing
  Mutation rate, Small Single Spots 1–2 Cells m = 2: 0.16 (6) spots/wing
  Mutation rate, Total Spots m = 2: 0.21 (8) spots/wing
  Mutation rate, Twin Spots m = 5: 0 spots/wing
[1]
  IC50 at 72 h: 70 µM
rats
  Genotoxic effect, comet assay: no genotoxic effect

## COc1cc(/C=C/C(=O)O)cc(OC)c1O [SI, sinapic acid]
D. melanogaster
  Genotoxicity in the Drosophila wing spot test (in words): not mutagenic
D. melanogaster; 0.15 mM SI
  Diagnosis, Large Single Spots >2 Cells m = 5: −
  Diagnosis, Small Single Spots 1–2 Cells m = 2: −
  Diagnosis, Total Spots m = 2: −
  Diagnosis, Twin Spots m = 5: −
  Mutation rate, Large Single Spots >2 Cells m = 5: 0.04 (1) spots/wing
  Mutation rate, Small Single Spots 1–2 Cells m = 2: 0.38 (9) spots/wing
  Mutation rate, Total Spots m = 2: 0.46 (11) spots/wing
  Mutation rate, Twin Spots m = 5: 0.04 (1) spots/wing
D. melanogaster; 0.29 mM SI
  Diagnosis, Large Single Spots >2 Cells m = 5: −
  Diagnosis, Small Single Spots 1–2 Cells m = 2: −
  Diagnosis, Total Spots m = 2: −
  Mutation rate, Large Single Spots >2 Cells m = 5: 0.10 (3) spots/wing
  Mutation rate, Small Single Spots 1–2 Cells m = 2: 0.39 (12) spots/wing
  Mutation rate, Total Spots m = 2: 0.48 (15) spots/wing
  Mutation rate, Twin Spots m = 5: 0 spots/wing
D. melanogaster; 0.58 mM SI
  Diagnosis, Large Single Spots >2 Cells m = 5: −
  Diagnosis, Small Single Spots 1–2 Cells m = 2: −
  Diagnosis, Total Spots m = 2: −
  Mutation rate, Large Single Spots >2 Cells m = 5: 0.07 (2) spots/wing
  Mutation rate, Small Single Spots 1–2 Cells m = 2: 0.33 (10) spots/wing
  Mutation rate, Total Spots m = 2: 0.40 (12) spots/wing
  Mutation rate, Twin Spots m = 5: 0 spots/wing
D. melanogaster; 1.16 mM SI
  Diagnosis, Large Single Spots >2 Cells m = 5: −
  Diagnosis, Small Single Spots 1–2 Cells m = 2: −
  Diagnosis, Total Spots m = 2: −
  Diagnosis, Twin Spots m = 5: −
  Mutation rate, Large Single Spots >2 Cells m = 5: 0.03 (1) spots/wing
  Mutation rate, Small Single Spots 1–2 Cells m = 2: 0.23 (9) spots/wing
  Mutation rate, Total Spots m = 2: 0.28 (11) spots/wing
  Mutation rate, Twin Spots m = 5: 0.03 (1) spots/wing
V79 cell line
  Genotoxic/antigenotoxic activity: antigenotoxic

## COc1cc(C(=O)O)cc(OC)c1O [SY, syringic acid]
D. melanogaster
  Genotoxicity in the Drosophila wing spot test (in words): not mutagenic
D. melanogaster; 0.16 mM SY
  Diagnosis, Large Single Spots >2 Cells m = 5: −
  Diagnosis, Small Single Spots 1–2 Cells m = 2: −
  Diagnosis, Total Spots m = 2: −
  Diagnosis, Twin Spots m = 5: −
  Mutation rate, Large Single Spots >2 Cells m = 5: 0.05 (2) spots/wing
  Mutation rate, Small Single Spots 1–2 Cells m = 2: 0.30 (12) spots/wing
  Mutation rate, Total Spots m = 2: 0.38 (15) spots/wing
  Mutation rate, Twin Spots m = 5: 0.03 (1) spots/wing
D. melanogaster; 0.32 mM SY
  Diagnosis, Large Single Spots >2 Cells m = 5: −
  Diagnosis, Small Single Spots 1–2 Cells m = 2: −
  Diagnosis, Total Spots m = 2: −
  Mutation rate, Large Single Spots >2 Cells m = 5: 0.07 (2) spots/wing
  Mutation rate, Small Single Spots 1–2 Cells m = 2: 0.20 (6) spots/wing
  Mutation rate, Total Spots m = 2: 0.27 (8) spots/wing
  Mutation rate, Twin Spots m = 5: 0 spots/wing
D. melanogaster; 0.63 mM SY
  Diagnosis, Large Single Spots >2 Cells m = 5: −
  Diagnosis, Small Single Spots 1–2 Cells m = 2: −
  Diagnosis, Total Spots m = 2: −
  Mutation rate, Large Single Spots >2 Cells m = 5: 0.02 (1) spots/wing
  Mutation rate, Small Single Spots 1–2 Cells m = 2: 0.19 (9) spots/wing
  Mutation rate, Total Spots m = 2: 0.21 (10) spots/wing
  Mutation rate, Twin Spots m = 5: 0 spots/wing
D. melanogaster; 1.26 mM SY
  Diagnosis, Large Single Spots >2 Cells m = 5: −
  Diagnosis, Small Single Spots 1–2 Cells m = 2: −
  Diagnosis, Total Spots m = 2: −
  Mutation rate, Large Single Spots >2 Cells m = 5: 0.06 (2) spots/wing
  Mutation rate, Small Single Spots 1–2 Cells m = 2: 0.22 (7) spots/wing
  Mutation rate, Twin Spots m = 5: 0 spots/wing
HL-60 cells
  Cytotoxic effect in HL-60: no cytotoxic effect
HL-60 cell
  Apoptosis induction in HL-60: did not induce apoptosis
